In one assay the target is PAD2 (Homo sapiens, UniProt Q9Y2J8). Nature of the assay: Colorimetric assay (BAEE, DAMO/antipyrine), PAD2. The format is biochemical. The note with it: Table 22, colorimetric assay of Example 6; read-out: IC50 values (μM) hPAD2. As to the method:
One of the assays that was used to investigate the inhibition of a PAD by the inhibitors, is the colorimetric assay that has been described previously {Sugawara et al. 1998}. In this assay benzoylarginine ethyl ester (BAEE) is incubated with a purified recombinant PAD enzyme as indicated in a buffer containing 50 mM Tris-HCl, pH 7.6, 10 mM CaCl2, 2 mM dithiothreitol for 3 hours at 37° C. […] After cooling down to room temperature, the absorbance is measured at 450 nm.
To test the efficacy of the inhibitors (see Table 21) in this assay, a recombinant PAD enzyme as indicated was pre-incubated with various concentrations of inhibitory compounds for 15 minutes at 37° C.
The capacity of various compounds to inhibit the human PAD2 (0.12 μM) and PAD4 (0.2 μM) in this colorimetric assay is illustrated in FIG. 4.

In another assay the target is creatine kinase (CK). In words: Creatine kinase activity (CK NAC activated liquiUV test). The format is biochemical, mammalian. The conditions noted are these: enzyme treated with inhibitor 10 min at room temperature.
In the next assay the target is T1, caspase-3 (Homo sapiens, UniProt P42574).
T1 sequence (P42574 29-175 limits assumed): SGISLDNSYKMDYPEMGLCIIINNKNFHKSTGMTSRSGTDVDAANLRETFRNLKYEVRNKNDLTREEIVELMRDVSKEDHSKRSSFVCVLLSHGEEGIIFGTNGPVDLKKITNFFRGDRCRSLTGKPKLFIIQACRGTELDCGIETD
T1 sequence (P42574 176-277 limits assumed): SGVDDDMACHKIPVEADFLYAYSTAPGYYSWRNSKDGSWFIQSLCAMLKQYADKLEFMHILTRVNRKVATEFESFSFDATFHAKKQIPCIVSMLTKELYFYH
In words: Caspase-3 activity assay (Ac-DEVDpNA cleavage). The format is biochemical, mammalian. The note with it: enzyme treated with inhibitor 10 min at room temperature. As to the method:
Upon incubation of purified recombinant caspase-3 with its commercially available substrate: acetyl-Asp-Glu-Val-Asp-p-nitroanilide (Ac-DEVDpNA) SEQ ID NO: 145 in CFS buffer (220 mM mannitol, 68 mM sucrose, 2mM NaCl, 2.5 mM KH2PO4, 10 mM HEPES, pH 7.4 plus a cocktail of protease inhibitors), the substrate is cleaved, pNA is released and its absorbance at 405 nm can be monitored.

For another assay, the target named is transglutaminase (TG) (UniProt P08587). In words: biochemical.
transglutaminase (TG), sequence (P08587 whole entry): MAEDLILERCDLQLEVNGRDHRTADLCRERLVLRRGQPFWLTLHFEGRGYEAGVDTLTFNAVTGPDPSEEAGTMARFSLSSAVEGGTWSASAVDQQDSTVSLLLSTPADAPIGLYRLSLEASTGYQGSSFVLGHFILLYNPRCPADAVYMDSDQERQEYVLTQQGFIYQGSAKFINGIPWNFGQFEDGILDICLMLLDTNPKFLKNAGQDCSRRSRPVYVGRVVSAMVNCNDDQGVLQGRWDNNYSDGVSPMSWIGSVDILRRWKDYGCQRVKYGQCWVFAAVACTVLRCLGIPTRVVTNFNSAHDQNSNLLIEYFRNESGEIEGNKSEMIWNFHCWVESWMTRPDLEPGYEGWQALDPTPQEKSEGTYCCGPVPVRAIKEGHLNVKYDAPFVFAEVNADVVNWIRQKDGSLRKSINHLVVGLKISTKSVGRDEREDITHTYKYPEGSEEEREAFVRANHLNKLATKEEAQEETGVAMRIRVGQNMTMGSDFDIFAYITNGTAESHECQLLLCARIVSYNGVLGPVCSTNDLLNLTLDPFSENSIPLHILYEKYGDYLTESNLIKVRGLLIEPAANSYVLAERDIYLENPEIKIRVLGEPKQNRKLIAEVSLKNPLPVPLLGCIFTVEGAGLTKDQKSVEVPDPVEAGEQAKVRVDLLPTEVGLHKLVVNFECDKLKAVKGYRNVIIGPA
Another assay has as its target hDDAH-1 (Homo sapiens, UniProt O94760). Nature of the assay: biochemical.
A further assay has as its target papain (Carica papaya, UniProt P00784). Nature of the assay: biochemical.

Each structure is given as a SMILES string. Square brackets hold non-standard residues; d marks the D form. Peptide text beside a SMILES is read from it. Orn(fluoroacetimidoyl) = N=C(CF)NCCC[C@H](N)C(=O)O

PAD2, sequence (Q9Y2J8 whole entry): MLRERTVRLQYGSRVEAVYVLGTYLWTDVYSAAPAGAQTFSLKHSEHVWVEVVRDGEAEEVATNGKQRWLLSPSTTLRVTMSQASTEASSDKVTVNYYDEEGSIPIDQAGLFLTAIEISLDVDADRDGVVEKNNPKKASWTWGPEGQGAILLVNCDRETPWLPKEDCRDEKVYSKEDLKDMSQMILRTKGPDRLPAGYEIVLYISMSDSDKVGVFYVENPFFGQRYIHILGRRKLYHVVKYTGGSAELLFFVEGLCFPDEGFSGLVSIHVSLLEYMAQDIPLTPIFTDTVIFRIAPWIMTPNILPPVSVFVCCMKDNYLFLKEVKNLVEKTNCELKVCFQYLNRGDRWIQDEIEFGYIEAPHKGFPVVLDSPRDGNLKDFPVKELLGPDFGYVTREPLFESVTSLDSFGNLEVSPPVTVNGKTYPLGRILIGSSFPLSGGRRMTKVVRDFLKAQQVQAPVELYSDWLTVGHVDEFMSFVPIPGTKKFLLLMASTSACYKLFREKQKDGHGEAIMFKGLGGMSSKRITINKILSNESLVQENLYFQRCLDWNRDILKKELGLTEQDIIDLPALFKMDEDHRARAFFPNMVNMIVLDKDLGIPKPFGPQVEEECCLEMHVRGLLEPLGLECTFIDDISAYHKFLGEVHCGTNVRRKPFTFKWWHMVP
hDDAH-1, sequence (O94760 whole entry): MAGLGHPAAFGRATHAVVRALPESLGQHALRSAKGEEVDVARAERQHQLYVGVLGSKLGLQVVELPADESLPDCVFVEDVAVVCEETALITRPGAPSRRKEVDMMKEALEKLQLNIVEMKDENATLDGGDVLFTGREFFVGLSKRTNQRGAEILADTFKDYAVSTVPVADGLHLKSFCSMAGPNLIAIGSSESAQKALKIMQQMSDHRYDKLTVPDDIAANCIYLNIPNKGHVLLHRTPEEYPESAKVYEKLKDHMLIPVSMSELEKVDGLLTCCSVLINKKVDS
papain, sequence (P00784 134-345): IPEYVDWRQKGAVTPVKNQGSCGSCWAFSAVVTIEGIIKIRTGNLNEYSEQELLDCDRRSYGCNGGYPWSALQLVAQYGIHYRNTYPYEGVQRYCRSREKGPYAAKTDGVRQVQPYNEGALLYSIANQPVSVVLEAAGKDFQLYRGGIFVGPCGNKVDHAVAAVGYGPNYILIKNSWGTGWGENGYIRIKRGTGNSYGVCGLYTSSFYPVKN
Protocol for creatine kinase (CK): (§1) The activities of CK and TG (both purchased from Sigma-Aldrich (Schnelldorf, Germany) were assayed with the help of the commercial kits CK NAC activated liquiUV test form
(§2) Human GmbH (Wiesbaden, Germany) and the Enzymatic Assay of [sequence] from Sigma-Aldrich (Schnelldorf, Germany) according to the manufacturers' instructions.
Protocol for hDDAH-1: The most commonly used procedure to determine hDDAH-1 activity relies on diacetyl monoxime (DAMO) derivatization of the ureido group in L-citrulline to form a colored product. This assay has been optimized for monitoring DDAH activity in a 96-well format {Knipp et al., 2000}.
Purified recombinant His6-tagged hDDAH-1 was incubated with its substrate ADMA in assay buffer (100 mM Na2HPO4, pH 8.0) at 37° C. for 1 h. The reaction was quenched by the addition of 0.3 M trifluoroacetic acid. The L-citrulline formed was modified with 1.5 mg/ml DAMO (diacetyl monoxime) and 1.0 mg/ml antipyrine in the presence of 15% sulphuric acid, 12% phosphoric acid and 0.16 mg/ml FeCla3 for 10 minutes at 100° C. After cooling down to room temperature, the absorbance was measured at 450 nm.
Protocol for papain: The activity of papain was assessed using a similar experimental setting, based on its cleavage of pGlu-Phe-Leu-pNA in reaction buffer (25 mM Tris-HCL, pH 7.6; 150 mM NaCl).
Protocol for transglutaminase (TG): as §1, §2

As to `CC[C@H](C)[C@H](NC(=O)[C@H](Cc1ccccc1)NC(=O)[C@H](CC(=O)O)NC(=O)[C@H](CCCNC(=N)CF)NC(=O)[C@H](CC(=O)O)NC(=O)[C@H](Cc1ccccc1)NC(=O)[C@H](CCCCN)NC(C)=O)C(N)=O` [Peptide 0743-58FA, Ac-K-F-D-O(FA)-D-F-I-amide] (Ac-KFD[Orn(fluoroacetimidoyl)]DFI-NH2), the IC50 (as a rule, the concentration that gives 50% inhibition) at PAD2 is 35 µM; on creatine kinase (CK) it was 800 µM; against caspase-3 it was 920 µM; against transglutaminase (TG), 1000 µM; against hDDAH-1, over 2000 µM; against papain, over 2000 µM.

(Values after patent US8404647B2, “Peptidylarginine deiminase (PAD) inhibitors” (Chiralix B.V., priority 2008, dated 2013).)
